Measurements taken from patent US20140294925A1 (priority 2013, published 2014).
Values after ≈ are worked out from the molar mass of the structure shown. Like-named read-outs stand apart in the source and are kept apart here.

Tests used:
[1] = rat, in vivo, topical or ocular; cited from earlier work
[2] = rat, in vivo; cited from earlier work
[3] = test system: VRSA (vancomycin-resistant Staphylococcus aureus); conditions: cited from earlier work
[4] = test system: Staph. aureus ATCC700787 (MRSA/VISA); assay: MIC/FIC/FICI determination, MHB broth microdilution (CLSI M07-A9); assay type: cell-based; conditions: Staphylococcus aureus
[5] = test system: Staph. aureus ATCC29213 (semi-resistant); assay: MIC determination, MHB broth microdilution (CLSI M07-A9); assay type: cell-based; conditions: Staphylococcus aureus
[6] = test system: Enterococcus faecium ATCC700221 (VRE); assay: MIC/FIC/FICI determination, MHB broth microdilution (CLSI M07-A9); assay type: cell-based; conditions: single compound

What does the source list for rhamnolipids?
acute dermal toxicity LD50 [1]: > 5000 mg/kg; acute oral toxicity LD50 [2]: > 5000 mg/kg

Which MIC for vancomycin [3] does the source give for CN[C@H](CC(C)C)C(=O)N[C@H]1C(=O)N[C@@H](CC(N)=O)C(=O)N[C@H]2C(=O)N[C@H]3C(=O)N[C@H](C(=O)N[C@H](C(=O)O)c4cc(O)cc(O)c4-c4cc3ccc4O)[C@H](O)c3ccc(c(Cl)c3)Oc3cc2cc(c3O[C@@H]2O[C@H](CO)[C@@H](O)[C@H](O)[C@H]2O[C@H]2C[C@](C)(N)[C@H](O)[C@H](C)O2)Oc2ccc(cc2Cl)[C@H]1O [vancomycin] here?
Its MIC for vancomycin is at least 16 µg/mL.

And the MIC ([4]; 24 h)?
Its MIC is 8 µg/mL.

What about the MIC ([4]; 48 h) of the same molecule?
The MIC was 8 µg/mL.

What about the MIC ([5]; ATCC29213, 24 h) of the same molecule?
The MIC was 2 µg/mL (≈ 1.38 µM).

What about the MIC ([5]; ATCC29213, 48 h) of the same molecule?
The MIC was 2 µg/mL (≈ 1.38 µM).

Which results are given for CCCCCCCCCC(=O)N[C@@H](Cc1c[nH]c2ccccc12)C(=O)N[C@H](CC(N)=O)C(=O)N[C@@H](CC(=O)O)C(=O)N[C@@H]1C(=O)NCC(=O)N[C@@H](CCCN)C(=O)N[C@@H](CC(=O)O)C(=O)N[C@H](C)C(=O)N[C@@H](CC(=O)O)C(=O)NCC(=O)N[C@H](CO)C(=O)N[C@@H]([C@H](C)CC(=O)O)C(=O)N[C@@H](CC(=O)c2ccccc2N)C(=O)O[C@@H]1C [daptomycin]?
MIC ([4]; single compound, 24 hours exposure, read-out: MIC): 4 µg/mL; MIC ([4]; single compound, 48 hours exposure, read-out: MIC): 8 µg/mL; MIC ([5]; ATCC29213, single compound, 24 hours exposure, read-out: MIC): 2 µg/mL (≈ 1.23 µM); MIC ([5]; ATCC29213, single compound, 48 hours exposure, read-out: MIC): 2 µg/mL (≈ 1.23 µM); MIC ([6]; 24 hours exposure): 8 µg/mL; MIC ([6]; 48 hours exposure): 8 µg/mL
